Results: article PMC5218480 (PLoS ONE, 2017)

Tested on: MV-4-11 cells
Test: Gene expression microarray analysis (Affymetrix PrimeView) and GSEA
Assay type: cell-based, human
Parameters: RFU PODN (11730768_x_at) / Fold change /veh PODN (11730768_x_at) / RFU LINC00158 (11744669_a_at) / Fold change /veh LINC00158 (11744669_a_at) / RFU DUSP10 (11751237_a_at) / Fold change /veh DUSP10 (11751237_a_at) / RFU ID3 (11757404_x_at) / Fold change /veh ID3 (11757404_x_at) / RFU PLEKHG5 (11737974_s_at) / Fold change /veh PLEKHG5 (11737974_s_at) / RFU LRRC4B (11730491_at) / Fold change /veh LRRC4B (11730491_at) / RFU GIMAP4 (11747438_a_at) / Fold change /veh GIMAP4 (11747438_a_at) / RFU KRT8 (11758183_x_at) / Fold change /veh KRT8 (11758183_x_at) / RFU CNN1 (11734310_a_at) / Fold change /veh CNN1 (11734310_a_at) / RFU VPS37D (11726825_at) / Fold change /veh VPS37D (11726825_at) / RFU C10orf10 (11716522_x_at) / Fold change /veh C10orf10 (11716522_x_at) / RFU KIR2DL2 /// KIR2DL4 /// KIR2DL5A /// KIR2DL5B /// KIR2DS1 /// KIR2DS2 /// KIR2DS3 /// KIR2DS4 /// KIR3DL3 /// KIR3DL3 /// KIR3DS1 (11738374_at) / Fold change /veh KIR2DL2 /// KIR2DL4 /// KIR2DL5A /// KIR2DL5B /// KIR2DS1 /// KIR2DS2 /// KIR2DS3 /// KIR2DS4 /// KIR3DL3 /// KIR3DL3 /// KIR3DS1 (11738374_at) / RFU C1QL1 (11718748_at) / Fold change /veh C1QL1 (11718748_at) / RFU TMPRSS4 (11747572_a_at) / Fold change /veh TMPRSS4 (11747572_a_at) / RFU HAMP (11756126_x_at) / Fold change /veh HAMP (11756126_x_at) / RFU RNFT2 (11725882_a_at) / Fold change /veh RNFT2 (11725882_a_at) / RFU NR4A2 (11747474_a_at) / Fold change /veh NR4A2 (11747474_a_at) / RFU ABCC12 (11746883_a_at) / Fold change /veh ABCC12 (11746883_a_at) / RFU TMEM136 (11760407_x_at) / Fold change /veh TMEM136 (11760407_x_at) / RFU CLDN22 /// WWC2 (11732394_at) / Fold change /veh CLDN22 /// WWC2 (11732394_at) / RFU HLA-DPB1 (11760878_x_at) / Fold change /veh HLA-DPB1 (11760878_x_at) / RFU SPINT1 (11716480_a_at) / Fold change /veh SPINT1 (11716480_a_at) / RFU GAP43 (11754022_s_at) / Fold change /veh GAP43 (11754022_s_at) / RFU A4GNT (11735810_at) / Fold change /veh A4GNT (11735810_at) / RFU PRB3 (11715151_x_at) / Fold change /veh PRB3 (11715151_x_at) / RFU TUBB4B (11761932_at) / Fold change /veh TUBB4B (11761932_at) / RFU CAPN14 (11732068_a_at) / Fold change /veh CAPN14 (11732068_a_at) / RFU TMCC2 (11721928_a_at) / Fold change /veh TMCC2 (11721928_a_at) / RFU IRGQ (11745062_a_at) / Fold change /veh IRGQ (11745062_a_at) / RFU FAM174B (11720279_a_at) / Fold change /veh FAM174B (11720279_a_at) / RFU TMPRSS4 (11748680_a_at) / Fold change /veh TMPRSS4 (11748680_a_at) / RFU FAM212B (11763350_a_at) / Fold change /veh FAM212B (11763350_a_at) / RFU PLEKHG5 (11743358_a_at) / Fold change /veh PLEKHG5 (11743358_a_at) / RFU ZSCAN30 (11745921_a_at) / Fold change /veh ZSCAN30 (11745921_a_at) / RFU CMKLR1 (11741424_a_at) / Fold change /veh CMKLR1 (11741424_a_at) / RFU LOC101060620 /// MAPK8IP1 (11723275_at) / Fold change /veh LOC101060620 /// MAPK8IP1 (11723275_at) / RFU SPTSSB (11747773_x_at) / Fold change /veh SPTSSB (11747773_x_at) / RFU PRSS12 (11739890_at) / Fold change /veh PRSS12 (11739890_at) / RFU BIN1 (11741810_x_at) / Fold change /veh BIN1 (11741810_x_at) / RFU WNT11 (11732464_a_at) / Fold change /veh WNT11 (11732464_a_at) / RFU C10orf10 (11716521_a_at) / Fold change /veh C10orf10 (11716521_a_at) / RFU C5orf56 (11738089_at) / Fold change /veh C5orf56 (11738089_at) / RFU CYB561 (11721691_x_at) / Fold change /veh CYB561 (11721691_x_at) / RFU ANKRD19P (11752326_a_at) / Fold change /veh ANKRD19P (11752326_a_at) / RFU OR2T12 /// OR2T33 /// OR2T8 (11738714_s_at) / Fold change /veh OR2T12 /// OR2T33 /// OR2T8 (11738714_s_at) / RFU VCAN (11748164_a_at) / Fold change /veh VCAN (11748164_a_at) / RFU JSRP1 (11732532_at) / Fold change /veh JSRP1 (11732532_at) / RFU KRTAP10-11 (11738290_x_at) / Fold change /veh KRTAP10-11 (11738290_x_at) / RFU MYO3A (11730013_a_at) / Fold change /veh MYO3A (11730013_a_at) / RFU EBF3 (11725865_a_at) / Fold change /veh EBF3 (11725865_a_at) / RFU CAMK2N1 (11719241_x_at) / Fold change /veh CAMK2N1 (11719241_x_at) / RFU C5orf56 (11738088_a_at) / Fold change /veh C5orf56 (11738088_a_at) / RFU OLFML3 (11715873_a_at) / Fold change /veh OLFML3 (11715873_a_at) / RFU LOC100653217 /// NTM (11731650_a_at) / Fold change /veh LOC100653217 /// NTM (11731650_a_at) / RFU MAPK11 (11762145_a_at) / Fold change /veh MAPK11 (11762145_a_at) / RFU FIZ1 (11724087_x_at) / Fold change /veh FIZ1 (11724087_x_at) / RFU OASL (11726364_x_at) / Fold change /veh OASL (11726364_x_at) / RFU SOX15 (11748057_x_at) / Fold change /veh SOX15 (11748057_x_at) / RFU CD79A (11719716_a_at) / Fold change /veh CD79A (11719716_a_at) / RFU HIST1H1D (11736915_at) / Fold change /veh HIST1H1D (11736915_at) / RFU CASKIN2 (11723855_a_at) / Fold change /veh CASKIN2 (11723855_a_at) / RFU LOC730098 (11760151_x_at) / Fold change /veh LOC730098 (11760151_x_at) / RFU OR4N2 (11742367_at) / Fold change /veh OR4N2 (11742367_at) / RFU PRRT2 (11749266_a_at) / Fold change /veh PRRT2 (11749266_a_at) / RFU SNX32 (11753110_a_at) / Fold change /veh SNX32 (11753110_a_at) / RFU CDHR5 (11726645_a_at) / Fold change /veh CDHR5 (11726645_a_at) / RFU RCAN1 (11760418_a_at) / Fold change /veh RCAN1 (11760418_a_at) / RFU FAM167A (11723789_a_at) / Fold change /veh FAM167A (11723789_a_at) / RFU FAM26E (11764081_at) / Fold change /veh FAM26E (11764081_at) / RFU ISYNA1 (11749810_s_at) / Fold change /veh ISYNA1 (11749810_s_at) / RFU ACY1 (11761880_at) / Fold change /veh ACY1 (11761880_at) / RFU 11764098_at / Fold change /veh 11764098_at / RFU SAMD14 (11745864_x_at) / Fold change /veh SAMD14 (11745864_x_at) / RFU NPB (11741838_a_at) / Fold change /veh NPB (11741838_a_at) / RFU TMPRSS6 (11731388_a_at) / Fold change /veh TMPRSS6 (11731388_a_at) / RFU KRTAP10-2 (11738614_at) / Fold change /veh KRTAP10-2 (11738614_at) / RFU ARHGAP8 /// PRR5-ARHGAP8 (11727945_x_at) / Fold change /veh ARHGAP8 /// PRR5-ARHGAP8 (11727945_x_at) / RFU KRTAP5-7 /// NADSYN1 (11734609_at) / Fold change /veh KRTAP5-7 /// NADSYN1 (11734609_at) / RFU RASL12 (11751679_a_at) / Fold change /veh RASL12 (11751679_a_at) / RFU CDKN2B (11736163_a_at) / Fold change /veh CDKN2B (11736163_a_at) / RFU PRF1 (11729649_at) / Fold change /veh PRF1 (11729649_at) / RFU, ZNF638 /// ZNF638-IT1 / Fold change vs veh, ZNF638 /// ZNF638-IT1 / RFU, PANK3 / Fold change vs veh, PANK3 / RFU, SH3YL1 / Fold change vs veh, SH3YL1 / RFU, ZEB2 / Fold change vs veh, ZEB2 / RFU, NRIP1 / Fold change vs veh, NRIP1 / RFU, PTTG1IP / Fold change vs veh, PTTG1IP / RFU, CAPN2 / Fold change vs veh, CAPN2 / RFU, MED14 / Fold change vs veh, MED14 / RFU, SNORA58 / Fold change vs veh, SNORA58 / RFU, C1orf63 / Fold change vs veh, C1orf63 / RFU, LRRFIP1 / Fold change vs veh, LRRFIP1 / RFU, NDUFAF7 / Fold change vs veh, NDUFAF7 / RFU, SLC12A2 / Fold change vs veh, SLC12A2 / RFU, IBTK / Fold change vs veh, IBTK / RFU, ESF1 / Fold change vs veh, ESF1 / Fold change vs veh, TMEM50B / RFU, TAOK1 / Fold change vs veh, TAOK1 / RFU, ACBD3 / Fold change vs veh, ACBD3 / RFU, TMA16 / Fold change vs veh, TMA16 / RFU, RWDD3 / Fold change vs veh, RWDD3 / RFU, BCAT1 / Fold change vs veh, BCAT1 / RFU, EDEM3 / Fold change vs veh, EDEM3 / RFU, TMEM33 / Fold change vs veh, TMEM33 / RFU, WDR75 / Fold change vs veh, WDR75 / RFU, AHCTF1 / Fold change vs veh, AHCTF1 / RFU, TFRC / Fold change vs veh, TFRC / RFU, ZDHHC17 / Fold change vs veh, ZDHHC17 / RFU, NOM1 / Fold change vs veh, NOM1 / RFU, ARL8B / Fold change vs veh, ARL8B / RFU, ZBTB11 / Fold change vs veh, ZBTB11 / RFU, TAMM41 / Fold change vs veh, TAMM41 / RFU, KIAA1704 /// LOC100996395 / Fold change vs veh, KIAA1704 /// LOC100996395 / RFU, ING1 / Fold change vs veh, ING1 / RFU, TRMT61B / Fold change vs veh, TRMT61B / RFU, FUBP3 / Fold change vs veh, FUBP3 / RFU, TP53 / Fold change vs veh, TP53 / RFU, TNKS2 / Fold change vs veh, TNKS2 / RFU, ZFP14 / Fold change vs veh, ZFP14 / RFU, ACTR2 / Fold change vs veh, ACTR2 / RFU, PPP3R1 / Fold change vs veh, PPP3R1 / RFU, PIK3R1 / Fold change vs veh, PIK3R1 / RFU, HNRNPA1 / Fold change vs veh, HNRNPA1 / RFU, RNF170 / Fold change vs veh, RNF170 / RFU, ZNF28 / Fold change vs veh, ZNF28 / RFU, RNGTT / Fold change vs veh, RNGTT / RFU, OGT / Fold change vs veh, OGT / RFU, BRD1 / Fold change vs veh, BRD1 / RFU, MARS / Fold change vs veh, MARS / RFU, ZNF655 / Fold change vs veh, ZNF655 / RFU, FAHD1 / Fold change vs veh, FAHD1 / RFU, BDP1 / Fold change vs veh, BDP1 / RFU, LRRCC1 / Fold change vs veh, LRRCC1 / RFU, ARID1A / Fold change vs veh, ARID1A / RFU, ZNF146 / Fold change vs veh, ZNF146 / RFU, ZNF330 / Fold change vs veh, ZNF330 / RFU, GPN3 / Fold change vs veh, GPN3 / RFU, C9orf123 / Fold change vs veh, C9orf123 / RFU, N4BP2L2 / Fold change vs veh, N4BP2L2 / RFU, ARFIP1 / Fold change vs veh, ARFIP1 / RFU, FAM179B / Fold change vs veh, FAM179B / RFU, BCL10 / Fold change vs veh, BCL10 / RFU, UHRF1BP1L / Fold change vs veh, UHRF1BP1L / RFU, BET1 / Fold change vs veh, BET1 / RFU, CNOT2 / Fold change vs veh, CNOT2 / RFU, ZNF268 / Fold change vs veh, ZNF268 / Fold change vs veh, ZNF507 / RFU, DGCR2 / Fold change vs veh, DGCR2 / RFU, WDSUB1 / Fold change vs veh, WDSUB1 / Fold change vs veh, HSP90B1 /// MIR3652 / RFU, ADSS / Fold change vs veh, ADSS / RFU, GK / Fold change vs veh, GK / RFU, ZNF148 / Fold change vs veh, ZNF148 / RFU, TAF9 / Fold change vs veh, TAF9 / RFU, SLC1A5 / Fold change vs veh, SLC1A5 / RFU, SLMO2 / Fold change vs veh, SLMO2 / RFU, ABCC4 / Fold change vs veh, ABCC4 / RFU, LOC101060439 /// RAP1B / Fold change vs veh, LOC101060439 /// RAP1B / RFU, RFX7 / Fold change vs veh, RFX7 / RFU, GTPBP10 / Fold change vs veh, GTPBP10 / RFU, CNEP1R1 / Fold change vs veh, CNEP1R1 / RFU, BIVM-ERCC5 /// ERCC5 / Fold change vs veh, BIVM-ERCC5 /// ERCC5 / RFU, ILF3 / Fold change vs veh, ILF3 / RFU 11762660_at / Fold change /veh 11762660_at / RFU VCAN (11757783_s_at) / Fold change /veh VCAN (11757783_s_at) / RFU DDX43 (11728927_at) / Fold change /veh DDX43 (11728927_at) / RFU KRT8 (11758188_x_at) / Fold change /veh KRT8 (11758188_x_at) / RFU NKD1 (11759106_at) / Fold change /veh NKD1 (11759106_at) / RFU SRD5A1 (11742802_a_at) / Fold change /veh SRD5A1 (11742802_a_at) / RFU TPSAB1 /// TPSB2 (11721975_s_at) / Fold change /veh TPSAB1 /// TPSB2 (11721975_s_at) / RFU GSTM3 (11746129_a_at) / Fold change /veh GSTM3 (11746129_a_at) / RFU IL23R (11737362_x_at) / Fold change /veh IL23R (11737362_x_at) / RFU TMEM51 (11727254_a_at) / Fold change /veh TMEM51 (11727254_a_at) / RFU PIWIL2 (11732686_x_at) / Fold change /veh PIWIL2 (11732686_x_at) / RFU ORM1 (11744905_x_at) / Fold change /veh ORM1 (11744905_x_at) / RFU CCDC152 (11743942_at) / Fold change /veh CCDC152 (11743942_at) / RFU ECM1 (11717891_a_at) / Fold change /veh ECM1 (11717891_a_at) / RFU IL23R (11748794_a_at) / Fold change /veh IL23R (11748794_a_at) / RFU TNFAIP8L3 (11732012_x_at) / Fold change /veh TNFAIP8L3 (11732012_x_at) / RFU MBOAT4 (11741988_at) / Fold change /veh MBOAT4 (11741988_at) / RFU 11764193_at / Fold change /veh 11764193_at / RFU TMEM53 (11763286_at) / Fold change /veh TMEM53 (11763286_at) / RFU MAGEB2 (11727129_at) / Fold change /veh MAGEB2 (11727129_at) / RFU TMEM200A (11744735_a_at) / Fold change /veh TMEM200A (11744735_a_at) / RFU CCDC152 (11751479_a_at) / Fold change /veh CCDC152 (11751479_a_at) / RFU FAM211A (11726209_a_at) / Fold change /veh FAM211A (11726209_a_at) / RFU RGS16 (11746705_a_at) / Fold change /veh RGS16 (11746705_a_at) / RFU VCAN (11755009_s_at) / Fold change /veh VCAN (11755009_s_at) / RFU RHOB (11743442_s_at) / Fold change /veh RHOB (11743442_s_at) / RFU RGS16 (11720943_a_at) / Fold change /veh RGS16 (11720943_a_at) / RFU RGS16 (11720944_at) / Fold change /veh RGS16 (11720944_at) / RFU, VPS4B / Fold change vs veh, VPS4B / RFU, CREB1 / Fold change vs veh, CREB1 / RFU, DNAJC13 / Fold change vs veh, DNAJC13 / RFU, GNAQ / Fold change vs veh, GNAQ / RFU, CDK5R1 / Fold change vs veh, CDK5R1 / RFU, ZRANB3 / Fold change vs veh, ZRANB3 / RFU, CUL4A / Fold change vs veh, CUL4A / RFU, CCNY / Fold change vs veh, CCNY / RFU, UFL1 / Fold change vs veh, UFL1 / RFU, COG3 / Fold change vs veh, COG3 / RFU, DIAPH2 / Fold change vs veh, DIAPH2 / RFU, SKA2 / Fold change vs veh, SKA2 / RFU, AFF3 / Fold change vs veh, AFF3 / RFU, LMF1 / Fold change vs veh, LMF1 / RFU, IPO11 / Fold change vs veh, IPO11 / RFU, DFFB / Fold change vs veh, DFFB / RFU, FOXP1 / Fold change vs veh, FOXP1 / RFU, CARD8 / Fold change vs veh, CARD8 / RFU, STRN3 / Fold change vs veh, STRN3 / RFU, ADK / Fold change vs veh, ADK / RFU, RASSF2 / Fold change vs veh, RASSF2 / RFU, WIPF1 / Fold change vs veh, WIPF1 / RFU, LARP1B / Fold change vs veh, LARP1B / RFU, RASA1 / Fold change vs veh, RASA1 / RFU, RB1 / Fold change vs veh, RB1 / RFU, PPFIA1 / Fold change vs veh, PPFIA1 / RFU, MAT2A / Fold change vs veh, MAT2A / RFU, CCT5 / Fold change vs veh, CCT5 / RFU, WDR92 / Fold change vs veh, WDR92 / RFU, CUX1 / Fold change vs veh, CUX1 / RFU, TTC7A / Fold change vs veh, TTC7A / RFU, TMEM135 / Fold change vs veh, TMEM135 / RFU, DEPTOR / Fold change vs veh, DEPTOR / RFU, CPM / Fold change vs veh, CPM / RFU, DNAJB6 / Fold change vs veh, DNAJB6 / RFU, CACNA2D3 / Fold change vs veh, CACNA2D3 / RFU, DTX4 / Fold change vs veh, DTX4 / RFU, TFCP2 / Fold change vs veh, TFCP2 / RFU, GMCL1 /// GMCL1P1 / Fold change vs veh, GMCL1 /// GMCL1P1 / RFU, AEBP2 / Fold change vs veh, AEBP2 / RFU, SNHG1 /// SNORD22 /// SNORD25 /// SNORD26 /// SNORD27 /// SNORD28 /// SNORD29 /// SNORD31 / Fold change vs veh, SNHG1 /// SNORD22 /// SNORD25 /// SNORD26 /// SNORD27 /// SNORD28 /// SNORD29 /// SNORD31 / Fold change (Aza/veh), C12orf56 (ProbeSet 11735607_a_at) / Fold change (ACY-1035/veh), C12orf56 (ProbeSet 11735607_a_at) / Fold change (Aza/veh), FGFR1OP (ProbeSet 11751329_s_at) / Fold change (ACY-1035/veh), FGFR1OP (ProbeSet 11751329_s_at) / Fold change (Aza/veh), VPS36 (ProbeSet 11739960_a_at) / Fold change (ACY-1035/veh), VPS36 (ProbeSet 11739960_a_at) / RFU SYPL1 (11715823_x_at) / Fold change /veh SYPL1 (11715823_x_at) / RFU IGFBP7 (11715501_s_at) / Fold change /veh IGFBP7 (11715501_s_at) / RFU REEP3 (11722064_at) / Fold change /veh REEP3 (11722064_at) / RFU IGLL1 (11728026_x_at) / Fold change /veh IGLL1 (11728026_x_at): dose or concentration left out as unconfirmed
Settings: ProbeSet 11722463_a_at; LIST B

Question: With Nc1ccc(-c2cccs2)cc1NC(=O)c1ccc2c(c1)cc(C1CC1)n2CCN1CCOCC1 [ACY-1035] as the compound, how does the “RFU, TNKS2” value read?
Answer: 53.51 RFU
